The text below walks through data of the NIST ThermoML archive (doi:10.1021/je500420g).

Numbers after ± are expanded uncertainties.

The data set is described as follows: xn = mol fraction of the nth substance listed. The following applies: 100 kPa, Liquid, Vibrating tube method.

For `[I-].[K+]` [potassium iodide] + O, the mass density by setting is: (293.15 K, x1 = 0.01) 1065.2 ± 0.2 kg/m3; (293.15 K, x1 = 0.03) 1194 ± 0.3 kg/m3; (293.15 K, x1 = 0.05) 1317.9 ± 0.4 kg/m3; (303.15 K, x1 = 0.01) 1061.9 ± 0.2 kg/m3; (303.15 K, x1 = 0.03) 1189.3 ± 0.3 kg/m3; (303.15 K, x1 = 0.05) 1312.1 ± 0.4 kg/m3. In addition, the mass density by setting is: (313.15 K, x1 = 0.01) 1057.9 ± 0.2 kg/m3; (313.15 K, x1 = 0.03) 1184.1 ± 0.3 kg/m3; (313.15 K, x1 = 0.05) 1306 ± 0.4 kg/m3; (323.15 K, x1 = 0.01) 1053.2 ± 0.2 kg/m3; (323.15 K, x1 = 0.03) 1178.4 ± 0.3 kg/m3; (323.15 K, x1 = 0.05) 1299.3 ± 0.4 kg/m3. Moreover, the mass density runs as follows: (333.15 K, x1 = 0.01) 1047.9 ± 0.2 kg/m3; (333.15 K, x1 = 0.03) 1172.3 ± 0.3 kg/m3; (333.15 K, x1 = 0.05) 1292.4 ± 0.4 kg/m3.

As to `[Br-].[Rb+]` [rubidium bromide] + O, the mass density reads like this: (293.15 K, x1 = 0.01) 1068.6 ± 0.2 kg/m3; (293.15 K, x1 = 0.03) 1204.6 ± 0.3 kg/m3; (293.15 K, x1 = 0.05) 1336.9 ± 0.4 kg/m3; (303.15 K, x1 = 0.01) 1065 ± 0.2 kg/m3; (303.15 K, x1 = 0.03) 1199.7 ± 0.3 kg/m3; (303.15 K, x1 = 0.05) 1331 ± 0.4 kg/m3. In addition, the mass density was found to be 1060.7 ± 0.2 kg/m3 (313.15 K, x1 = 0.01); 1194.5 ± 0.3 kg/m3 (313.15 K, x1 = 0.03); 1324.9 ± 0.4 kg/m3 (313.15 K, x1 = 0.05); 1056 ± 0.2 kg/m3 (323.15 K, x1 = 0.01); 1188.9 ± 0.3 kg/m3 (323.15 K, x1 = 0.03); 1318.6 ± 0.4 kg/m3 (323.15 K, x1 = 0.05). Further, the mass density runs as follows: (333.15 K, x1 = 0.01) 1050.9 ± 0.2 kg/m3; (333.15 K, x1 = 0.03) 1182.9 ± 0.3 kg/m3; (333.15 K, x1 = 0.05) 1312.2 ± 0.4 kg/m3.

Take `[Cl-].[Rb+]` [rubidium chloride] + O: the mass density by setting is: (293.15 K, x1 = 0.01) 1048.3 ± 0.2 kg/m3; (293.15 K, x1 = 0.03) 1144.2 ± 0.3 kg/m3; (293.15 K, x1 = 0.05) 1237.9 ± 0.3 kg/m3; (303.15 K, x1 = 0.01) 1044.8 ± 0.2 kg/m3; (303.15 K, x1 = 0.03) 1139.8 ± 0.3 kg/m3; (303.15 K, x1 = 0.05) 1232.8 ± 0.3 kg/m3. In addition, the mass density came out at 1040.7 ± 0.2 kg/m3 (313.15 K, x1 = 0.01); 1135 ± 0.3 kg/m3 (313.15 K, x1 = 0.03); 1227.5 ± 0.3 kg/m3 (313.15 K, x1 = 0.05); 1036.1 ± 0.2 kg/m3 (323.15 K, x1 = 0.01); 1130 ± 0.3 kg/m3 (323.15 K, x1 = 0.03); 1222 ± 0.3 kg/m3 (323.15 K, x1 = 0.05). For the same molecule, the mass density reads like this: (333.15 K, x1 = 0.01) 1031.2 ± 0.2 kg/m3; (333.15 K, x1 = 0.03) 1124.7 ± 0.3 kg/m3; (333.15 K, x1 = 0.05) 1216.3 ± 0.3 kg/m3.

For the molecule `[F-].[Rb+]` [rubidium fluoride (RbF)] + O, the mass density by setting is: (293.15 K, x1 = 0.01) 1048.7 ± 0.2 kg/m3; (293.15 K, x1 = 0.03) 1150.6 ± 0.3 kg/m3; (293.15 K, x1 = 0.05) 1250.3 ± 0.4 kg/m3; (303.15 K, x1 = 0.01) 1045.7 ± 0.2 kg/m3; (303.15 K, x1 = 0.03) 1146.5 ± 0.3 kg/m3; (303.15 K, x1 = 0.05) 1246.1 ± 0.4 kg/m3. Moreover, the mass density came to 1042 ± 0.2 kg/m3 (313.15 K, x1 = 0.01); 1141.9 ± 0.3 kg/m3 (313.15 K, x1 = 0.03); 1241.4 ± 0.4 kg/m3 (313.15 K, x1 = 0.05); 1037.6 ± 0.2 kg/m3 (323.15 K, x1 = 0.01); 1137 ± 0.3 kg/m3 (323.15 K, x1 = 0.03); 1236.2 ± 0.4 kg/m3 (323.15 K, x1 = 0.05). In addition, the mass density runs as follows: (333.15 K, x1 = 0.01) 1032.6 ± 0.2 kg/m3; (333.15 K, x1 = 0.03) 1131.6 ± 0.3 kg/m3; (333.15 K, x1 = 0.05) 1230.6 ± 0.4 kg/m3.

As a reminder, the mass density is mass per unit of volume.
